Laboratory results from patent EP1076558B1, “2-PHENYL-1-[-(2-AMINOETHOXY)-BENZYL -INDOLE IN COMBINATION WITH ESTROGENS” (Wyeth, priority 1998, dated 1999).
Marks after values point to notes of the source that are not given here. Values belong to the compound of their own block, whether it stands above or below them.

Columns and labels:
Ishikawa cells = experiment: Ishikawa Cell Alkaline Phosphatase Assay; format: cell-based, human; conditions: for % Activation: percent of response related to 1 nM 17β-estradiol, 48 h
Protocol: Cells were treated for 48 h prior to assay. […] Sample population for at each dose was n=8. […] Plates are placed at -80°C for a minimum of 15 minutes. Plates are thawed at 37°C followed by the addition of 150μL of 0.1 M Tris-HCl, pH 9.8, containing 4 mM para-nitrophenylphosphate (pNPP) to each well (final concentration. 3 mM pNPP). Absorbance and slope calculations were made using the […] Application program (Bio-Tek Instruments, Inc., Winooski, VT). […] Various compounds were assayed for estrogenic activity by the alkaline phosphatase method and corresponding ED50 values (95% C.I.) were calculated. The four listed in the following were used as as reference standards: A description of these methods is described by Holinka, […]., Kuramoto, H. and Gurpide, E. (1986) Effects of steroid hormones and antisteroids on alkaline phosphatase activity in human endometrial cancer cells (Ishikawa Line). Cancer Research, 46:2771-2774, and by […]. and […] simple and sensitive microtiter plate estrogen bioassay based on stimulation alkaline phosphatase in Ishikawa cells; […] Endocrinology, 6:2757-2762.

Ovariectomized Rat = experiment: 6-Week Ovariectomized Rat Model; format: in vivo; conditions: ovx rats, daily x7 days/week, mean; for BMD L4 / BMD Proximal Tibia: following 5 weeks of treatment; for Body Weight / Cholesterol / Uterine Weight: following 6 weeks of treatment
From the text: Female Sprague Dawley CD rats, ovx or sham ovx, were obtained 1 day after surgery from Taconic Farm (weight range 240 - 275 g). They were housed 3 or 4 rats/cage in a room on a 14/10 (light/dark) schedule and provided with food (Purina 500 rat chow) and water ad libitum. Treatment for all studies began 1 day after the animals arrival and dosed 5 or 7 days per week as indicated for 6 weeks. A group of age matched sham operated rats not receiving any treatment served as an intact, estrogen replete control group for each study. All treatments were prepared in 1% tween 80 in normal saline at defined concentrations so that the treatment volume was 0.1mL/100g body weight. 17-beta estradiol was dissolved in corn oil (20 uG/mL) and delivered subcutaneously, 0.1 mL/rat. All dosages were adjusted at three week intervals according to group mean body weight measurements.
Five weeks after the initiation of treatment and one week prior to the termination of the study, each rat was evaluated for bone mineral density (BMD). The BMD's of the proximal tibiae (PT) and fourth lumbar vertabrae (L4) were measured in anesthetized rats using a dual energy X-ray absorptiometer (Eclipse XR-26, Norland Corp. Ft. Atkins, WI). The dual energy X-ray absorptiometer (DXA) measurements for each rat were performed as follows: Fifteen minutes prior to DXA measurements, the rat was anesthetized with an intraperitoneal injection of 100 mg/kg ketamine (Bristol Laboratories, Syracuse, NY) and 0.75 mg/kg acepromazine (Aveco, Ft.Dodge, IA). The rat was placed on an acrylic table under the DXA scanner perpendicular to its path; the limbs were extended and secured with paper tape to the surface of the table. A preliminary scan was performed at a scan speed of 50 mm/second with a scan resolution of 1.5 mm X 1.5 mm to determine the region of interest in PT and L4. Small subject software was employed at a scan speed of 10mm/second with resolution of 0.5 mm X 0.5 mm for final BMD measurements. The software allows the operator to define a 1.5 cm wide area to cover the total length of L4. The BMDs for respective sites were computed by the software as a function of the attenuation of the dual beam (46.8 KeV and 80 KeV) X-ray generated by the source underneath the subject and the detector travelling along the defined area above the subject. The data for BMD values (expressed in g/cm2) and individual scans were stored for statistical analysis. One week after BMD evaluation the rats were sacrificed by carbon dioxide suffocation and blood collected for cholesterol determination. The uteri were removed and the weights taken. Total cholesterol is determined using a Boehringer-Mannheim Hitachi 911 clinical analyzer using the Cholesterol/HP kit. Statitstics were compared using one-way analysis of variance with Dunnet's test.

[1] = with 1 nM 17β-estradiol (antiestrogen test)

Compound: Cc1c(-c2ccc(O)cc2)n(Cc2ccc(OCCN3CCCCCC3)cc2)c2ccc(O)cc12 [Example No. 98, 1-[4-(2-Azepan-1-yl-ethoxy)-benzyl]-2-(4-hydroxy-phenyl)-3-methyl-1H-indol-5-ol]
- % Activation (Ishikawa cells; compound alone): 1% activity (1% with 1 nM 17β-estradiol)
- % Activation (Ishikawa cells; [1]): 1% activity (1% with 1 nM 17β-estradiol)
- BMD L4 (Ovariectomized Rat; 0.3mg/kg, p.o.): 0.173 mg/cm^2
- BMD Proximal Tibia (Ovariectomized Rat; 0.3mg/kg, p.o.): 0.210** mg/cm^2
- Body Weight (Ovariectomized Rat; 0.3mg/kg, p.o.): 46.8 g
- Cholesterol (Ovariectomized Rat; 0.3mg/kg, p.o.): 59.0** mg/dl
- Uterine Weight (Ovariectomized Rat; 0.3mg/kg, p.o.): 149.3 mg

Compound: O=C(c1ccc(OCCN2CCCCC2)cc1)c1c(-c2ccc(O)cc2)sc2cc(O)ccc12 [raloxifene]
- % Activation (Ishikawa cells; compound alone): 5% activity (5% with 1 nM 17β-estradiol)
- % Activation (Ishikawa cells; [1]): 5% activity (5% with 1 nM 17β-estradiol)
- BMD L4 (Ovariectomized Rat; 3mg/kg, p.o.): 0.170 mg/cm^2
- BMD Proximal Tibia (Ovariectomized Rat; 3mg/kg, p.o.): 0.207** mg/cm^2
- Body Weight (Ovariectomized Rat; 3mg/kg, p.o.): 25.3** g
- Cholesterol (Ovariectomized Rat; 3mg/kg, p.o.): 55.0** mg/dl
- Uterine Weight (Ovariectomized Rat; 3mg/kg, p.o.): 191.6** mg

Compound: C[C@]12CC[C@@H]3c4ccc(O)cc4CC[C@H]3[C@@H]1CC[C@@H]2O [17β-estradiol]
- Body Weight (Ovariectomized Rat; 2µg/rat, s.c.): 33.1** g
